Values joined by “and” are separate entries in the source; they are usually repeats but may differ in a detail not shown here. Equal entries are not always repeated.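 Grown in 96-well plates, cells were treated for 48 hours with each compound at five concentrations. Insufficient inhibition: endpoint recorded as highest concentration tested. Abbreviation: GI50, concentration required for 50% inhibition of growth. At the TGI there is no net growth.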
Columns and labels:
Experiment in all cases: inhibition of tumour cell growth, NCI panel, 48 h
COLO 205 colon = tested on: COLO 205 colon
OVCAR-5 ovarian = tested on: OVCAR-5 ovarian
HOP-92 NSCLC = tested on: HOP-92 NSCLC
OVCAR-8 ovarian = tested on: OVCAR-8 ovarian
NCI-H522 lung = tested on: NCI-H522 lung
LOX IMVI melanoma = tested on: LOX IMVI melanoma
HOP-62 NSCLC = tested on: HOP-62 NSCLC
UACC-62 melanoma = tested on: UACC-62 melanoma
CCRF-CEM leukemia = tested on: CCRF-CEM leukemia
MALME-3M melanoma = tested on: MALME-3M melanoma

Compound | TGI (COLO 205 colon) | TGI (OVCAR-5 ovarian) [µM] | TGI (HOP-92 NSCLC) | TGI (OVCAR-8 ovarian) | TGI (NCI-H522 lung) | TGI (LOX IMVI melanoma) | TGI (HOP-62 NSCLC) | TGI (UACC-62 melanoma) | TGI (CCRF-CEM leukemia) | TGI (MALME-3M melanoma) | GI50 (COLO 205 colon) | GI50 (OVCAR-5 ovarian) | GI50 (OVCAR-8 ovarian) | GI50 (NCI-H522 lung) | GI50 (LOX IMVI melanoma) | GI50 (UACC-62 melanoma) | GI50 (CCRF-CEM leukemia) | GI50 (MALME-3M melanoma) | GI50 (HOP-92 NSCLC) | GI50 (HOP-62 NSCLC) [µM]
CCCCCCCCCCCCCCCCNc1ccn(C2CC(O)C(COC(c3ccccc3)(c3ccccc3)c3ccc(OC)cc3)O2)c(=O)n1 (stereo unspecified) | > 100 µM | > 100 | > 100 µM | > 100 µM | > 100 µM | > 100 µM | > 100 µM | > 100 µM | > 100 µM | > 100 µM |  |  |  |  |  |  |  |  |  | 
O=C1C(c2c(O)[nH]c3ccc(Br)cc23)=Nc2ccc(Br)cc21 | > 100 µM | > 100 | > 100 µM | 81.3 µM | > 100 µM | > 100 µM | > 100 µM | > 100 µM | > 100 µM | > 100 µM |  |  |  |  |  |  |  |  |  | 
Cc1nc2sc(C(=O)c3ccc(Cl)cc3)c(N)c2c(-c2ccccc2Cl)c1C(=O)Nc1ccccc1 | 37.4 µM | 38.6 | 15.9 µM | 47.1 µM | 25.1 µM | 31.7 µM | 37 µM | 29.6 µM | 19.9 µM | 29.2 µM |  |  |  |  |  |  |  |  |  | 
COc1cc(OC)c2c(c1)OC(c1cccnc1)C(c1ccccc1)C2=O (stereo unspecified) | > 100 µM | > 100 | > 100 µM | > 100 µM | > 100 µM | > 100 µM | > 100 µM | > 100 µM | > 100 µM | > 100 µM |  |  |  |  |  |  |  |  |  | 
C/C(=N\Nc1nc2ccccc2s1)c1cc2ccccc2cn1 | 13.3 µM | 54.5 | 93.6 µM | 16.5 µM | 26 µM | 10.4 µM | 41.7 µM | 21.1 µM | 8.04 µM | > 100 µM |  |  |  |  |  |  |  |  |  | 
c1ccc2c(c1)cc1n2CCc2c-1[nH]c1ccccc21 | > 10 µM | > 10 | > 10 µM | > 10 µM | > 10 µM | > 10 µM | > 10 µM | > 10 µM | > 10 µM | > 10 µM |  |  |  |  |  |  |  |  |  | 
CC(=O)OCC1OC(n2c(S)c(C#N)c(-c3ccccc3)c(C#N)c2=O)C(OC(C)=O)C(OC(C)=O)C1OC(C)=O (stereo unspecified) | > 100 µM and 65.3 µM | > 100 | 59.9 µM and 99.2 µM | > 100 µM and 36.2 µM | > 100 µM and 51.3 µM | > 100 µM and 31 µM | 52.9 µM and 75.7 µM | > 100 µM and 59.5 µM | > 100 µM and 96.7 µM | > 100 µM and 98.9 µM | > 100 µM and 26.1 µM | > 100 µM and 39.7 µM | > 100 µM and 16.7 µM | 54.8 µM and 27 µM | > 100 µM and 17.2 µM | 82.3 µM and 23.2 µM | > 100 µM and 43.1 µM | > 100 µM and 32.2 µM |  | 
O=C(O)[C@H](CCC[C@H]1C(=O)O[C@H](c2ccccc2)[C@H](c2ccccc2)N1C(=O)OCc1ccccc1)N[C@@H](c1ccccc1)[C@H](O)c1ccccc1 | > 100 µM | > 100 | 49.5 µM | 45.7 µM | 38.6 µM | 51.9 µM | 39 µM | 44.1 µM | 46.4 µM | 42.2 µM |  |  |  |  |  |  |  |  |  | 
CC1=CP(=O)(c2c(C(C)C)cc(C(C)C)cc2C(C)C)CCC1Cl (stereo unspecified) | 29.8 µM | 32.5 | 31 µM | 52.9 µM | 33.6 µM | 47.2 µM | 33.9 µM | 26.1 µM | 65.4 µM | 30.4 µM |  |  |  |  |  |  |  |  |  | 
COc1ccccc1C1(c2c(OC)c(=O)c2=O)SCCCS1 | > 100 µM | > 100 | > 100 µM | > 100 µM | > 100 µM | > 100 µM | > 100 µM | > 100 µM | > 100 µM | > 100 µM |  |  |  |  |  |  |  |  |  | 
O=C(O)/C=C/c1c[nH]c(=O)[nH]c1=O | > 500 µM | > 500 | > 500 µM | > 500 µM | > 500 µM | > 500 µM | > 250 µM | > 500 µM | > 316 µM | > 500 µM |  | > 500 µM |  |  |  |  |  |  | > 500 µM and 76.3 µM | > 250
COc1nc2ccc(COc3ccc(C(=O)O)cc3)cc2nc1OC | > 100 µM | > 100 | > 100 µM | > 100 µM | > 100 µM | > 100 µM | > 100 µM | > 100 µM | 97.4 µM | > 100 µM |  |  |  |  |  |  |  |  |  | 
CCC(C)C1=C(O)[N+]2([O-])Oc3ccc(-c4c(O)c(O)c(-c5ccc(OC(C)=O)cc5)c(OC(C)=O)c4OC(C)=O)cc3OC2(C(C)CC)C(=O)N1O (stereo unspecified) | > 50 µM | > 50 | > 50 µM | > 50 µM | > 50 µM | > 50 µM | > 50 µM | > 50 µM | > 50 µM | > 50 µM |  |  |  |  |  |  |  |  |  | 
CC1OC2OC3C(OCC(O)C3O)OC(=O)[C@]34CCC(C)(C)CC3C3=CCC5[C@@]6(C)C[C@H](O)[C@H](OC7OC(CO)C(O)C(O)C7OC7OCC(OC(=O)CC(C)(O)CC(=O)OC1C(O)C2O)C(O)C7O)[C@@](C)(CO)C6CC[C@@]5(C)[C@]3(C)CC4 (stereo partly specified) | 4.39 µM | 7 | 6.03 µM | 15.8 µM | 12 µM | 21.7 µM | 6.8 µM | 14.4 µM | 24 µM | 12.3 µM |  |  |  |  |  |  |  |  |  | 

Source: PubChem BioAssay (NCI)
